Measurements as given in article PMC8955854, “The Peptide Hormone CNMa Influences Egg Production in the Mosquito Aedes aegypti” (Insects, 2022).
“Also recorded” adds a separate entry of the source. Positions of bridges follow the written chain, without caps; N, C: chain ends. No end group written: not given here.

Columns and labels:
AeCNMaR-1a (AAEL024199) = AeCNMaR-1a (AAEL024199) (Aedes aegypti, UniProt A0A6I8U3V2); assay: Receptor activation, aequorin luminescence in CHO-K1 aeq cells expressing AeCNMaR-1a; type: cell-based
AeCNMaR-1a (AAEL024199), sequence (A0A6I8U3V2 entry or part of it): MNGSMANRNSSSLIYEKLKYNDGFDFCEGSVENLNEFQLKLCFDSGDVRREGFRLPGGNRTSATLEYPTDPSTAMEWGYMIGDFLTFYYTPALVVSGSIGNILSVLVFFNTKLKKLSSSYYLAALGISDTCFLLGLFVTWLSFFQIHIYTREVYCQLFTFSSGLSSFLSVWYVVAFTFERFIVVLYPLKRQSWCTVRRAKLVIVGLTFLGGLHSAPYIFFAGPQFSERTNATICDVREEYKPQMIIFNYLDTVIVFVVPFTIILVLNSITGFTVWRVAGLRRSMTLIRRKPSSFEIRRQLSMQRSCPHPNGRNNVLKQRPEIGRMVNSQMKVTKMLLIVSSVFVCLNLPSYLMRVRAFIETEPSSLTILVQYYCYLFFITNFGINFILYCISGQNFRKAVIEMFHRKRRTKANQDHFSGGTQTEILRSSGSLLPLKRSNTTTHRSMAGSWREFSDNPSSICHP
Description: The CNMa peptide was synthesized and HPLC purified (>90% purity) by Royobiotechs (Shanghai, China) based on the published sequence of the AeCNMa peptide sequence. Both the amidated (YMSLCHFKLCNMa) and the non-amidated (YMSLCHFKLCNM) were produced with a disulfide bridge between cysteines 5 and 10. The complete coding sequence of the two putative Ae. aegypti CNMa receptors (VectorBase genes AAEL024199 and AAEL018316, which we henceforth refer to as AeCNMaR-1a and AeCNMaR-1b, respectively) were commercially synthesized (Integrated DNA Technologies) and subsequently subcloned into a pcDNA3.1+ mammalian expression vector [24]. A Chinese hamster ovary cell line stably expressing the calcium-dependent bioluminescent protein aequorin (CHO-K1 aeq) was grown in Dulbecco’s modified eagles medium: nutrient F12 (DMEM:F12) media containing 10% heat-inactivated fetal bovine serum (FBS; Wisent, St. Bruno, QC, Canada), 200 μg/mL geneticin, and an antimycotic-antibiotic mixture as described previously. When cells reached 80–90% confluency, they were transfected using Lipofectamine 3000 transfection reagent following manufacturer recommendations (Life Technologies, Burlington, ON, Canada) to transiently express a mammalian construct in pcDNA3.1+ containing either of the two candidate CNMa receptors or mCherry (pcDNA3.1+ mCherry was a gift from Scott Gradia, Addgene plasmid #30125), the latter of which served as a negative control for the receptor functional assay. After 48 h following transfection, CHO-K1 aeq cells were harvested by dislodging from culture flasks using Dulbecco’s PBS containing EDTA and subsequently resuspended in receptor assay media.
Other Ae. aegypti peptides used in this study included “capability” (CAPA)-1 (GPTVGLFAFPRV-NH2), CAPA-2 (pQGLVPFPRV-NH2), AedaeCAPA-pyrokinin (PK) 1 (AGNSGANSGMWFGPRL-NH2), adipokinetic/corazonin-like peptide (ACP; pQVTFSRDWNA-NH2), adipokinetic hormone (AKH) (pQLTFTPSW-NH2), and corazonin (CRZ; pQTFQYSRGWTN-NH2). Serial dilutions of the peptide stocks were prepared in bovine serum albumin (BSA) assay media (DMEM:F12 media + 0.1% BSA + 1× antibiotic-antimycotic) to test concentrations ranging from 10 pM to 50 μM. Single concentrations of the various peptides were loaded into individual wells of white 96-well luminescence plates (Greiner Bio-One, Frickenhausen, Germany) with each peptide concentration tested in quadruplicate. CHO-K1 aeq cells expressing either of the two AeCNMa receptors or mCherry were prepared for the functional assay, as described above, and injected into each well of the 96-well luminescence plates by an automated injector unit integrated with the Synergy 2 Multi-Mode Microplate Reader (BioTek, Winooski, VT, USA). The kinetic luminescent response was measured for 10 s immediately following the application of the cells into the wells containing the different peptide treatments or the negative (i.e., BSA media alone) or positive (i.e., 50 μM ATP) controls as described previously. Data was assembled in Microsoft Excel and then analyzed in GraphPad Prism 7.02 (GraphPad Software, San Diego, CA, USA) where the dose–response curves from multiple biological replicates were used to determine the half maximal effective concentrations (EC50).

AeCNMaR-1b (AAEL018316) = AeCNMaR-1b (AAEL018316) (Aedes aegypti, UniProt A0A1S4G7J8); assay: Receptor activation, aequorin luminescence in CHO-K1 aeq cells expressing AeCNMaR-1b; type: cell-based
AeCNMaR-1b (AAEL018316), sequence (A0A1S4G7J8 entry or part of it): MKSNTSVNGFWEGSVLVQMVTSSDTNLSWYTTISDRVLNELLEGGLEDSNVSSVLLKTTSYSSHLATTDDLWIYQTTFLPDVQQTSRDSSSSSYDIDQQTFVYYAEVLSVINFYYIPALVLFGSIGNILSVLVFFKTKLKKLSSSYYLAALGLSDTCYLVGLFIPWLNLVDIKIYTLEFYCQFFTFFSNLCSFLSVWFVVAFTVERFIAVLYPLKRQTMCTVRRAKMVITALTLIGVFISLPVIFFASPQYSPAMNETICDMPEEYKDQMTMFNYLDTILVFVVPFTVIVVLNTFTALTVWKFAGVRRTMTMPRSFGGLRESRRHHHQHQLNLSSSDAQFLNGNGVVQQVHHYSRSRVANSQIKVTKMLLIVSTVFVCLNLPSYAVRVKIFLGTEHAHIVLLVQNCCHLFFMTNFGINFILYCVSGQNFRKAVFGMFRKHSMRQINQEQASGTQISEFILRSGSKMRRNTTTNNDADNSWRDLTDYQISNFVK
Description: The CNMa peptide was synthesized and HPLC purified (>90% purity) by Royobiotechs (Shanghai, China) based on the published sequence of the AeCNMa peptide sequence. Both the amidated (YMSLCHFKLCNMa) and the non-amidated (YMSLCHFKLCNM) were produced with a disulfide bridge between cysteines 5 and 10. The complete coding sequence of the two putative Ae. aegypti CNMa receptors (VectorBase genes AAEL024199 and AAEL018316, which we henceforth refer to as AeCNMaR-1a and AeCNMaR-1b, respectively) were commercially synthesized (Integrated DNA Technologies) and subsequently subcloned into a pcDNA3.1+ mammalian expression vector [24]. A Chinese hamster ovary cell line stably expressing the calcium-dependent bioluminescent protein aequorin (CHO-K1 aeq) was grown in Dulbecco’s modified eagles medium: nutrient F12 (DMEM:F12) media containing 10% heat-inactivated fetal bovine serum (FBS; Wisent, St. Bruno, QC, Canada), 200 μg/mL geneticin, and an antimycotic-antibiotic mixture as described previously. […]
Other Ae. aegypti peptides used in this study included “capability” (CAPA)-1 (GPTVGLFAFPRV-NH2), CAPA-2 (pQGLVPFPRV-NH2), AedaeCAPA-pyrokinin (PK) 1 (AGNSGANSGMWFGPRL-NH2), adipokinetic/corazonin-like peptide (ACP; pQVTFSRDWNA-NH2), adipokinetic hormone (AKH) (pQLTFTPSW-NH2), and corazonin (CRZ; pQTFQYSRGWTN-NH2). […] Single concentrations of the various peptides were loaded into individual wells of white 96-well luminescence plates (Greiner Bio-One, Frickenhausen, Germany) with each peptide concentration tested in quadruplicate. CHO-K1 aeq cells expressing either of the two AeCNMa receptors or mCherry were prepared for the functional assay, as described above, and injected into each well of the 96-well luminescence plates by an automated injector unit integrated with the Synergy 2 Multi-Mode Microplate Reader (BioTek, Winooski, VT, USA). The kinetic luminescent response was measured for 10 s immediately following the application of the cells into the wells containing the different peptide treatments or the negative (i.e., BSA media alone) or positive (i.e., 50 μM ATP) controls as described previously. Data was assembled in Microsoft Excel and then analyzed in GraphPad Prism 7.02 (GraphPad Software, San Diego, CA, USA) where the dose–response curves from multiple biological replicates were used to determine the half maximal effective concentrations (EC50).

[1] = tested on: CHO K1 aeq mCherry-expressing cells; assay: Negative control: luminescence in CHO-K1 aeq cells expressing mCherry; type: cell-based, Chinese hamster; conditions: 1 µM peptide; CHO K1 aeq cells transfected with pcDNA3.1+ mCherry
Description: The CNMa peptide was synthesized and HPLC purified (>90% purity) by Royobiotechs (Shanghai, China) based on the published sequence of the AeCNMa peptide sequence. Both the amidated (YMSLCHFKLCNMa) and the non-amidated (YMSLCHFKLCNM) were produced with a disulfide bridge between cysteines 5 and 10. The complete coding sequence of the two putative Ae. aegypti CNMa receptors (VectorBase genes AAEL024199 and AAEL018316, which we henceforth refer to as AeCNMaR-1a and AeCNMaR-1b, respectively) were commercially synthesized (Integrated DNA Technologies) and subsequently subcloned into a pcDNA3.1+ mammalian expression vector [24]. […]
Other Ae. aegypti peptides used in this study included “capability” (CAPA)-1 (GPTVGLFAFPRV-NH2), CAPA-2 (pQGLVPFPRV-NH2), AedaeCAPA-pyrokinin (PK) 1 (AGNSGANSGMWFGPRL-NH2), adipokinetic/corazonin-like peptide (ACP; pQVTFSRDWNA-NH2), adipokinetic hormone (AKH) (pQLTFTPSW-NH2), and corazonin (CRZ; pQTFQYSRGWTN-NH2). […] Single concentrations of the various peptides were loaded into individual wells of white 96-well luminescence plates (Greiner Bio-One, Frickenhausen, Germany) with each peptide concentration tested in quadruplicate. […]

Ae. aegypti females = assay: Egg laying after injection into mated, blood-fed females; type: in vivo, Aedes aegypti
Protocol: (§1) Three- to five-day-old mated females were blood-fed as detailed above, and groups were injected with a range of CNMa in 0.5 μL of saline or saline alone (AS) for a control. Females were allowed to recover and then housed individually in mesh cages. At 3 d PBM, a wet paper towel was provided to the females to facilitate egg laying for up to 48 h and then the number of eggs was counted. To assess possible interactions of CNMa with OEH and ILP3, mated females were blood-fed then decapitated and injected at 1 h PBM with 150 pmol of CNMa, OEH, or ILP3, or combinations of each hormone. Ovaries were dissected at 24 h PBM and yolk deposition was measured along the anterior–posterior axis for five oocytes from each individual, using an ocular micrometer fitted to a dissecting microscope. For CNMa and JH experiments, pupae were isolated in eclosion chambers for 6 h and females were collected. Females were divided into two groups, one which was immediately injected with 150 pmol of CNMa or saline. The other half of the cohort was held for an additional 8 h then injected with the same solutions. At 3 d post-eclosion, females were blood-fed and oviposition was measured for all treatment groups.
Figure 5 AeCNMa reduces egg clutch size in mated Ae. aegypti females. […] After three days females were allowed to oviposit and eggs were counted 48 h later. […]

[2] = tested on: Ae. aegypti females (decapitated); assay: Yolk deposition in blood-fed decapitated females; type: in vivo, Aedes aegypti
Protocol: as §1
Average amount of yolk per oocyte in mated, blood fed, decapitated females injected with combinations of CNMa (150 pmol), ILP3 (20 pmol), and OEH (20 pmol), Aedes saline (AS), or not injected (intact or decapitation only) at one-hour post blood meal. Error bars show one standard error above and below the mean.

[3] = tested on: JH-responsive gene kruppel-homolog 1 (kh-1); assay: kh-1 transcript abundance (qPCR) after injection into females; type: in vivo, Aedes aegypti; conditions: CNMa or saline injected females
Protocol: (§2) Cohorts of female Ae. aegypti were sampled 8 to 10 days post-eclosion, pre-blood meal (NBF), then at 2, 4, 6, 8, 12, 24, 48, and 72 h PBM. Four or more females from each timepoint were dissected in cold, RNase-free PBS into head, midgut, ovaries, and abdominal body wall and fat body (“pelt”). Tissue samples were immediately frozen and stored at −80 °C. Tissues were thawed on ice, homogenized with a rotor type pestle, and then total RNA was extracted using the RNeasy Mini kit (Qiagen, Venlo, The Netherlands) according to the manufacturer’s instructions. RNA was treated with DNase using the Turbo DNA-free kit (Ambion, Austin, TX, USA). cDNA was synthesized from 100 ng of RNA with the iScript cDNA synthesis kit (BioRad, Hercules, CA, USA) and used as template in qPCR using the Quantifast SYBR Green PCR kit (Qiagen). The primers for each product are listed in Table S1. qPCR was performed on the Qiagen Rotorgene as described in [28]. Absolute standard curves were produced by cloning each qPCR product into the pSCA vector using the Strataclone PCR cloning kit (Agilent, Santa Clara, CA, USA) and preparing plasmid standards of a known copy number. For comparisons between mating status, the copy number of each target was normalized to the copy number of ribosomal protein S7.
(§3) For e74, expression is relative to e74 expression in AS-treated insects.

[4] = tested on: ecdysteroid-responsive gene e74; assay: e74 transcript abundance (qPCR) after injection into females; type: in vivo, Aedes aegypti; conditions: CNMa or saline injected females, qPCR relative to AS-treated, MANOVA e74: F3,19 = 0.8192, p = 0.50
Protocol: as §2, §3

Substance | lower concentration activating AeCNMaR-1a than AeCNMaR-1b (AeCNMaR-1a (AAEL024199); AeCNMaR-1a vs AeCNMaR-1b) | increase in sensitivity for the amidated peptide (AeCNMaR-1a (AAEL024199); AeCNMaR-1a, amidated AeCNMa vs non-amidated AeCNM) | luminescent response vs BSA media background (AeCNMaR-1a (AAEL024199); AeCNMaR-1a, peptides tested at 1 µM, raw luminescence, one-way ANOVA and Dunnett's test) | greater sensitivity for the amidated peptide (AeCNMaR-1b (AAEL018316); AeCNMaR-1b, amidated AeCNMa vs non-amidated AeCNM) | luminescent response vs BSA media background (AeCNMaR-1b (AAEL018316); AeCNMaR-1b, peptides tested at 1 µM, raw luminescence, one-way ANOVA and Dunnett's test) | luminescence in mCherry-expressing control cells [1] | number of eggs laid vs controls (Ae. aegypti females; 150 pmol injected immediately post blood meal, mated, eggs counted after 3 d + 48 h oviposition, control Aedes saline (AS)) | optimal dose (dose-response assay) (Ae. aegypti females; injection into mated) | yolk uptake, CNMa only ([2]; CNMa 150 pmol at 1 h post blood meal, decapitated females, vs decapitated only and AS control, Tukey's HSD) | yolk uptake, CNMa and ILP3 ([2]; CNMa 150 pmol, ILP3 20 pmol at 1 h post blood meal, vs ILP3 only and ILP3 and OEH, Tukey's HSD) | yolk uptake, CNMa + OEH + ILP3 ([2]; CNMa 150 pmol, ILP3 20 pmol, OEH 20 pmol at 1 h post blood meal, vs ILP3 + OEH injected females, Tukey's HSD) | yolk uptake, OEH + CNMa ([2]; CNMa 150 pmol, OEH 20 pmol at 1 h post blood meal, vs OEH only or OEH + ILP3, Tukey's HSD) | effect on yolk deposition elicited by OEH, ILP3, or both peptides together ([2]; decapitated blood-fed females, co-injection) | kh-1 expression vs saline ([3]; MANOVA kh-1: F1,20 = 0.5141, p = 0.68) | kh-1 expression vs saline ([3]; MANOVA kh-1: F1,20 = 0.5141, p = 0.68, listed as CNMa) | e74 expression vs saline [4] | e74 expression vs saline ([4]; listed as CNMa) | EC50 (AeCNMaR-1a (AAEL024199); CHO-K1 aeq cells, transient AeCNMaR-1a, luminescence over 10 s, 10 pM to 50 μM, quadruplicate, normalized to 50 µM AeCNMa, BSA assay media, read-out: EC50) | EC50 (AeCNMaR-1b (AAEL018316); CHO-K1 aeq cells, transient AeCNMaR-1b, luminescence over 10 s, 10 pM to 50 μM, quadruplicate, normalized to 50 µM AeCNMa, BSA assay media, read-out: EC50)
YMSLCHFKLCNMa (disulfide) [AeCNMa, Ae. aegypti CNMa peptide, amidated, HPLC purified (>90% purity)] | ~ 10 fold | 9 fold | significant response several orders of magnitude over the BSA media background luminescent response | 2.4 fold | significant response several orders of magnitude over the BSA media background luminescent response | No luminescence was detected | laid significantly fewer eggs than controls; also recorded: produced significantly fewer eggs than controls (p = 0.0087, Wilcoxon rank-sum test) | 150 pmol | not significantly different from decapitated only and AS control treatments | no significant difference in yolk uptake | no significant difference in yolk uptake | no significant difference in yolk uptake relative to OEH only or OEH + ILP3 treatments | did not affect yolk deposition elicited by OEH, ILP3, or both peptides together | no significant difference in their expression | did not significantly impact expression | no significant difference in their expression | did not significantly impact expression | – | –
YMSLCHFKLCNMa (disulfide) (YMSLCHFKLCNM-NH2; disulfide 5-10; N-terminus assumed; SMILES CSCC[C@H](NC(=O)[C@H](CC(N)=O)NC(=O)[C@@H]1CSSC[C@H](NC(=O)[C@H](CC(C)C)NC(=O)[C@H](CO)NC(=O)[C@H](CCSC)NC(=O)[C@@H](N)Cc2ccc(O)cc2)C(=O)N[C@@H](Cc2c[nH]cn2)C(=O)N[C@@H](Cc2ccccc2)C(=O)N[C@@H](CCCCN)C(=O)N[C@@H](CC(C)C)C(=O)N1)C(N)=O) [AeCNMa, Ae. aegypti CNMa peptide, amidated, HPLC purified (>90% purity)] | – | – | – | – | – | – | – | – | – | – | – | – | – | – | – | – | – | 5.17 nM | 51.8 nM
